Assay [1] addresses T1, NAD-dependent protein deacetylase sirtuin-1 (Homo sapiens, UniProt Q96EB6).
T1 sequence (Q96EB6 whole entry): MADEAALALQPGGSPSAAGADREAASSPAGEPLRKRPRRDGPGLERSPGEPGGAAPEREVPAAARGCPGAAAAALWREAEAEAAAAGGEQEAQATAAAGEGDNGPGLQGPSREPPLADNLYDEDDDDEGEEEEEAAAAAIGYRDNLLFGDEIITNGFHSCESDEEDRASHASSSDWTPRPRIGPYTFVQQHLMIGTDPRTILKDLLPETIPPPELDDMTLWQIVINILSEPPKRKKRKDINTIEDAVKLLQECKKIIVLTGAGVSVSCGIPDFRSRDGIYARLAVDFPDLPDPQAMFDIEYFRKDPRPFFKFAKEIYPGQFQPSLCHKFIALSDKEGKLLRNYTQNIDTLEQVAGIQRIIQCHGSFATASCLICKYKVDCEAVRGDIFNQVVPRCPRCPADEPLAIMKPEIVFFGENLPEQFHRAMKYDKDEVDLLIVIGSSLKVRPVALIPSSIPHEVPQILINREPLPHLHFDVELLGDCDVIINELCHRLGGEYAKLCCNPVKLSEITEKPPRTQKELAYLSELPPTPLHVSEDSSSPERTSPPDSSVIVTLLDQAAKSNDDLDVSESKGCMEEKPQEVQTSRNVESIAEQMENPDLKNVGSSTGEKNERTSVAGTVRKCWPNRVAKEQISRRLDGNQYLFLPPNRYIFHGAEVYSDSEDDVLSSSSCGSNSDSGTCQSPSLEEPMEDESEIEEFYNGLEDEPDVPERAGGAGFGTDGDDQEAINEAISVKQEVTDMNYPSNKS
The experiment in a line: Inhibition of N-terminal hexa-His-tagged human SIRT1 (156 to 664 residues) expressed in Escherichia coli BL21 (DE3) assessed as deacetylation of Abz-labeled acetyl peptide using Abz-GVLKacAYNO2GY-NH2 peptide as substrate incubated for 30 mins in presence of NAD+ by fluorescence microplate reader assay.

For assay [2], the target named is T2, NAD-dependent protein deacetylase sirtuin-2 (Homo sapiens, UniProt Q8IXJ6).
T2 sequence (Q8IXJ6 whole entry): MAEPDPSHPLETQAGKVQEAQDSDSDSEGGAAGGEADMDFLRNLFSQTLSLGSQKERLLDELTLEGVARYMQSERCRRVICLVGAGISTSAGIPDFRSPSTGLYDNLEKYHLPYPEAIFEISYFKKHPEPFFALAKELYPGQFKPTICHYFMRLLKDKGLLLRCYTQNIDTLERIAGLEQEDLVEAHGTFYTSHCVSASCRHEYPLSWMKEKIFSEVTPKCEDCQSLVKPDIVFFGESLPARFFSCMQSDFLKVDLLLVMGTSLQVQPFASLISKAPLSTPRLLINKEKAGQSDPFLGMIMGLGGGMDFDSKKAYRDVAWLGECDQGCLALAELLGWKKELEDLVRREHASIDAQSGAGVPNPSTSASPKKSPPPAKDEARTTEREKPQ
Description: Inhibition of GST-fusion tagged human SIRT2 (34 to 356 residues) expressed in Escherichia coli BL21 (DE3) using Abz-GVLKacAYNO2GY-NH2 peptide as substrate incubated for 30 mins in presence of NAD+ by fluorescence microplate reader assay.

Assay [3] concerns the target T3, NAD-dependent protein deacetylase sirtuin-1 (Homo sapiens) (UniProt Q96EB6).
T3 sequence (whole entry): T1 sequence (Q96EB6 whole entry)
Description: Inhibition of SIRT1 in human SH-SY5Y cells assessed as increase in acetylated p53 level at 10 uM measured after 72 hrs in presence of ATRA by Western blot analysis. The assay is classed as cell-based.

Assay [4] deals with NAD-dependent protein deacylase sirtuin-5, mitochondrial (Homo sapiens, UniProt Q9NXA8). The experiment in a line: Inhibition of N-terminal 8His-tagged human SIRT5 (34 to 302 residues) expressed in Escherichia coli Rosetta2 (DE3) using Abz-GVLKacAYNO2GY-NH2 peptide as substrate incubated for 30 mins in presence of NAD+ by fluorescence microplate reader assay.
Assay [5] concerns the target NAD-dependent protein deacylase sirtuin-6 (Homo sapiens, UniProt Q8N6T7). Description: Inhibition of recombinant N-terminal hexa-His-tagged SIRT6 (3 to 318 residues) (unknown origin) expressed in Escherichia coli BL21 (DE3) using RHKKac-AMC as substrate incubated for 2 hrs in presence of NAD+ by fluorescence microplate reader assay.
Assay [6] has as its target T3, NAD-dependent protein deacetylase sirtuin-1 (Homo sapiens). The experiment in a line: Inhibition of SIRT1 in human SH-SY5Y cells assessed as increase in acetylated p53 level at 10 uM by Western blot analysis. The assay is classed as cell-based.
Assay [7] shares this target. Description: Inhibition of SIRT1 in human SH-SY5Y cells assessed as increase in ratio of acetylated p53 to p53 level by Western blot analysis. The assay is classed as cell-based. Conditions: dose 0.1-50 µM.

Active and inactive are the calls of the source. The calls are words filed in the database; no cut-off is given here.

Sequence of NAD-dependent protein deacylase sirtuin-6 (Q8N6T7 whole entry, the tested form may be a part): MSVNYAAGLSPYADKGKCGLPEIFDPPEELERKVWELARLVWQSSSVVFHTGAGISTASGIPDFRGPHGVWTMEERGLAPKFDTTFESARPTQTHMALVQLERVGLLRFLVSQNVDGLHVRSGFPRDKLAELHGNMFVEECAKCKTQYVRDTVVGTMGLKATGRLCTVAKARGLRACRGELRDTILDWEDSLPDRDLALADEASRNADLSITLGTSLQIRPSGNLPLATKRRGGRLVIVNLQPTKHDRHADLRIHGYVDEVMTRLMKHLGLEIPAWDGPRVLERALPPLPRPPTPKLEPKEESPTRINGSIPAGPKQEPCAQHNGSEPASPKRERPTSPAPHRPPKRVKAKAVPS
Sequence of NAD-dependent protein deacylase sirtuin-5, mitochondrial (Q9NXA8 whole entry, the tested form may be a part): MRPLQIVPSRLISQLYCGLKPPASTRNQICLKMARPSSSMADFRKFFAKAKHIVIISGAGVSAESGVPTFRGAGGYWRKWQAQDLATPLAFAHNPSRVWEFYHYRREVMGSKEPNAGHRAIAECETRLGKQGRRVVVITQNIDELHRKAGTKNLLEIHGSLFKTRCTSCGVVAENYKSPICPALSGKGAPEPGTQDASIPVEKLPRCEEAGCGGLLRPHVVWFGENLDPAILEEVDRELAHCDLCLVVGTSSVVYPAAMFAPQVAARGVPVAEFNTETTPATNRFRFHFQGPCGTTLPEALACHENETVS

For the compound `Cc1cc(C=C2C(=O)OC(c3ccccc3)OC2=O)ccc1O` (stereo not given), in assay [1] (read-out: IC50), the IC50 was 5.41 µM.

Consider `CCOc1cc(C=C2C(=O)OC(c3ccccc3)OC2=O)cc([N+](=O)[O-])c1O` (stereo not given), for which the IC50 in assay [1] (read-out: IC50) was found to be 3.69 µM.

In the case of `Nc1c(Br)cc(C=C2C(=O)OC(c3ccccc3)OC2=O)cc1Br` (stereo not given), the IC50 in assay [1] (read-out: IC50) was found to be 7.63 µM.

On to `O=C1OC(c2ccccc2)OC(=O)C1=Cc1cc(Br)c(O)c(OCc2ccccc2)c1` (stereo not given), for which the IC50 in assay [1] (read-out: IC50) turned out to be 0.68 µM. For `O=C1OC(c2ccccc2)OC(=O)C1=Cc1ccc(O)c(Cl)c1` (stereo not given), the IC50 in assay [1] (read-out: IC50) came out at 3.84 µM.

Turning to `CCOc1cc(C=C2C(=O)OC(c3ccccc3)OC2=O)cc(Br)c1O` (stereo not given), the IC50 in assay [1] (read-out: IC50) is 1.14 µM. Same read-out and setting: with `COc1cc(C=C2C(=O)OC(C)(c3ccccc3)OC2=O)ccc1OCc1cccc(C(=O)O)c1` (stereo not given) the figure was 12.9 µM; with `CC(C)(C)c1cc(C=C2C(=O)OC(c3ccccc3)OC2=O)cc(C(C)(C)C)c1O` (stereo not given), 19 µM; with `COc1cc(C=C2C(=O)OC(c3ccccc3)OC2=O)ccc1OCc1ccc2c(c1)OCO2` (stereo not given), 8.14 µM.

On to `COc1cc(C=C2C(=O)OC(c3ccccc3)OC2=O)c(Br)cc1O` (stereo not given), for which the IC50 in assay [1] (read-out: IC50) is 3.52 µM. The same measure, in the same setting: with `COc1ccc(OC)c(C=C2C(=O)OC(C)(c3ccccc3)OC2=O)c1` (stereo not given) the figure was 16.8 µM.

`CC(C)Oc1cccc(C=C2C(=O)OC(c3ccccc3)OC2=O)c1` (stereo not given): the IC50 in assay [1] (read-out: IC50) was 14 µM. `CC1(c2ccccc2)OC(=O)C(=Cc2ccccc2)C(=O)O1` (stereo not given): the IC50 result in assay [1] is recorded as “Not Active”. As to `O=C1OC(c2ccccc2)OC(=O)C1=Cc1ccc(O)cc1F` (stereo not given), the IC50 in assay [1] (read-out: IC50) is 3.76 µM. Still for that read-out and setting: the value for `COc1cc(C=C2C(=O)OC(c3ccccc3)OC2=O)cc(Cc2ccccc2)c1O` (stereo not given) was 2.47 µM. Regarding `O=C1OC(c2ccccc2)OC(=O)C1=Cc1ccc(O)c(OCc2ccccc2)c1` (stereo not given), in assay [1] (read-out: IC50), the IC50 was determined as 2.52 µM.

As for `O=C1OC(c2ccccc2)OC(=O)C1=Cc1cc(Cl)c(O)c(Cl)c1` (stereo not given), the IC50 is 56.4 µM in assay [2], 37.4 µM in assay [4] (read-out: IC50), “Not Active” in assay [5] and 1.2 µM in assay [1] (read-out: IC50). In addition, the “increase in acetylated p53 level (qualitative)” value (“increase in acetylated p53 level” below) in assay [3] is “Active”.

Regarding `O=C1OC(c2ccccc2)OC(=O)C1=Cc1ccc(O)cc1Br` (stereo not given), the IC50 in assay [1] (read-out: IC50) worked out at 3.56 µM. The same measure, in the same setting: the value for `Nc1c(I)cc(C=C2C(=O)OC(c3ccccc3)OC2=O)cc1I` (stereo not given) was 10.2 µM; that for `CCOc1cc(C=C2C(=O)OC(C)(c3ccccc3)OC2=O)ccc1O` (stereo not given) was 7.92 µM; that for `Cc1cc(C=C2C(=O)OC(c3ccccc3)OC2=O)cc(C)c1O` (stereo not given) was 3.07 µM. For the compound `O=C1OC(c2ccccc2)OC(=O)C1=Cc1cc(I)c(O)c(OCc2ccccc2)c1` (stereo not given), the IC50 in assay [1] (read-out: IC50) came to 0.61 µM.

Take `COc1cc(C=C2C(=O)OC(c3ccccc3)OC2=O)cc(C(=O)OCc2ccccc2)c1O` (stereo not given): the IC50 in assay [1] (read-out: IC50) stood at 2.66 µM.

For `COc1ccc(C=C2C(=O)OC(c3ccccc3)OC2=O)c(OC)c1OC` (stereo not given), the IC50 in assay [1] (read-out: IC50) was 15.8 µM. On the same count and under the same terms, the value for `COc1cc(C=C2C(=O)OC(c3ccccc3)OC2=O)cc([N+](=O)[O-])c1O` (stereo not given) was 3.49 µM; that for `COc1cc(OC)c(C=C2C(=O)OC(C)(c3ccccc3)OC2=O)cc1Br` (stereo not given) was 13.6 µM. On the same count and under the same terms, the value for `CC1(c2ccccc2)OC(=O)C(=Cc2ccc(O)cc2)C(=O)O1` (stereo not given) was 7.06 µM.

With `CCc1cc(C=C2C(=O)OC(c3ccccc3)OC2=O)cc(CC)c1O` (stereo not given), the IC50 in assay [1] (read-out: IC50) was 3.1 µM. Regarding `NC(=O)[C@@H]1CCCc2c1[nH]c1ccc(Cl)cc21`, the IC50 result in assay [4] and in assay [5] was “Not Active” throughout. With `O=C1OC(c2ccccc2)OC(=O)C1=Cc1ccc(OCc2cccc(C(=O)O)c2)cc1` (stereo not given), the IC50 in assay [1] (read-out: IC50) stood at 10 µM.

Turning to `COc1cc(C=C2C(=O)OC(c3ccccc3)OC2=O)cc(OC)c1O` (stereo not given), in assay [1] (read-out: IC50), the IC50 was determined as 11.9 µM. The same measure, in the same setting: with `O=C1OC(c2ccccc2)OC(=O)C1=Cc1ccc(O)c(Br)c1` (stereo not given) the figure was 1.4 µM. Consider `COc1cc(C=C2C(=O)OC(c3ccccc3)OC2=O)cc(I)c1O` (stereo not given), for which the IC50 was 49.4 µM in assay [2], 22.4 µM in assay [4] (read-out: IC50), “Not Active” in assay [5] and 0.89 µM in assay [1] (read-out: IC50). The “increase in acetylated p53 level” value in assay [3] is “Active”. For the compound `CCOc1cc(C=C2C(=O)OC(c3ccccc3)OC2=O)ccc1O` (stereo not given), in assay [1] (read-out: IC50), the IC50 was found to be 5.49 µM. In the case of `CC1=C(/C=C/C(C)=C/C=C/C(C)=C/C(=O)O)C(C)(C)CCC1`, the inhibition result in assay [6] was “inactive”. Turning to `O=C1OC(c2ccccc2)OC(=O)C1=Cc1ccc(O)cc1` (stereo not given), the IC50 in assay [1] (read-out: IC50) came out at 6.33 µM. With `O=C1OC(c2ccccc2)OC(=O)C1=Cc1cc(I)c(O)c(I)c1` (stereo not given), the IC50 in assay [2] is 52.2 µM; in assay [4] (read-out: IC50), 4.98 µM; in assay [5], “Not Active”; in assay [1] (read-out: IC50), 0.46 µM. Further, in assay [3], the “increase in acetylated p53 level” value was “Active”. For the same compound, in assay [7], the inhibition entry is “Dose-dependent effect”. Consider `Cc1cc(C=C2C(=O)OC(c3ccccc3)OC2=O)c(C)cc1O` (stereo not given), for which the concentration for half-maximal inhibition (IC50) in assay [1] (read-out: IC50) was found to be 4.4 µM.

Consider `O=C1OC(c2ccccc2)OC(=O)C1=Cc1ccc(O)c(OCC2CC2)c1` (stereo not given), for which the IC50 in assay [1] (read-out: IC50) came to 2.48 µM. As for `COc1cc(C=C2C(=O)OC(c3ccccc3)OC2=O)cc(Cl)c1O` (stereo not given), the “increase in acetylated p53 level” value in assay [3] is “Active”. Besides, in assay [1] (read-out: IC50), the IC50 turned out to be 1.9 µM. For `O=C1OC(c2ccccc2)OC(=O)C1=Cc1ccc(O)c(F)c1` (stereo not given), in assay [1] (read-out: IC50), the IC50 amounted to 4.65 µM. Same read-out and setting: with `COc1ccccc1C=C1C(=O)OC(C)(c2ccccc2)OC1=O` (stereo not given) the figure was 14.4 µM; with `O=C1OC(c2ccccc2)OC(=O)C1=Cc1ccc(Cl)cc1` (stereo not given), 18.8 µM. As for `O=C1OC(c2ccccc2)OC(=O)C1=Cc1cc(F)c(O)c(F)c1` (stereo not given), the IC50 in assay [1] (read-out: IC50) is 4.54 µM.

Take `O=C1OC(c2ccccc2)OC(=O)C1=Cc1cc(Br)c(O)c(Br)c1` (stereo not given): the IC50 in assay [1] (read-out: IC50) turned out to be 0.7 µM.

The record behind these values is ChEMBL document CHEMBL4680375 (ACS Med Chem Lett, 2021).
